Where “and” joins values, the source holds several entries; their conditions need not be identical. Equal values may be shown once.
Assays:
[1] = test system: Propionibacterium acnes (C. acnes) phylotype IA1 ATCC 6919; assay: MIC evaluation, optical density and percentage of inhibition; type: cell-based
Source text: The minimum inhibitory concentration of the following active ingredients has been assessed: • Mangifera indica extract (in propanediol/water 75/25); • Vehicule (propanediol/water 75/25, expressed as Activolo3-75%); • “Pool Mangiferin” which is the pure molecule mangiferin at the same concentration in the Mangifera indica extract in propanediol/water 75/25. • “Pool Mangifera” with is the mix of the 4 molecules (mangiferin, maclurin-C-glucoside, irifluophenone-C-glucoside, gallotanin) at the same concentration in the Mangifera indica extract in propane-diol/water 75/25. […] After two days, the bacterial concentration was adjusted in reinforced clostridial broth to obtain a solution at 1.106 CFU/ml (5.104 CFU/well). […] Concentrations are expressed in % (m/v). […] The diluted bacterial suspension was added to columns 2 to 12. RCB medium was added to column 1 as negative control. Optical density was determined, which correlates to the bacterial growth.

[2] = test system: H. influenzae (ATCC 49766); assay: as above; type: cell-based, Haemophilus influenza
Source text: The minimum inhibitory concentration of the following active ingredients has been assessed: • Mangifera indica extract (in propanediol/water 75/25); • Vehicule (propanediol/water 75/25, expressed as Activolo3-75%); • “Pool Mangiferin” which is the pure molecule mangiferin at the same concentration in the Mangifera indica extract in propanediol/water 75/25. • “Pool Mangifera” with is the mix of the 4 molecules (mangiferin, maclurin-C-glucoside, irifluophenone-C-glucoside, gallotanin) at the same concentration in the Mangifera indica extract in propane-diol/water 75/25.
H. influenzae (ATCC 49766) was cultured in Mueller Hinton broth as recommended by ATCC with 5% CO2. The Bacterial concentration was adjusted in Mueller Hinton broth to obtain a solution at 1.106 CFU/ml (5.104 CFU/well) (launch of culture at D-2). […] Two day later, the inhibition of H. influenzae was evaluated using Colony counter IUL instruments, flash and go model (reading at D2).
Concentrations are expressed in % (m/v).
The diluted bacterial suspension was added to columns 2 to 12. RCB medium was added to column 1 as negative control.
Optical density was determined, which correlates to the bacterial growth. Thereafter, an inhibition value (%) was determined for each condition using the following formula: […]
The percentage of inhibition must be higher or equal than 90% to reach the MIC.

[3] = 0.39 10^−2 % (m/v), plate col. 12
[4] = 0.78 10^−2 % (m/v), plate col. 11
[5] = 1.56 10^−2 % (m/v), plate col. 10
[6] = 3.1310^−2 % (m/v), plate col. 9
[7] = 6.25 10^−2 % (m/v), plate col. 8
[8] = 12.5 10^−2 % (m/v), plate col. 7
[9] = 25.0 10^−2 % (m/v), plate col. 6

In the case of `O=c1c2cc(O)c(O)cc2oc2cc(O)c([C@@H]3O[C@H](CO)[C@@H](O)[C@H](O)[C@H]3O)c(O)c12` [pool mangiferin], the “Optical density, C. acnes” value [1, 3] is reported as 0.238 and 0.246, the “Percentage of inhibition, C. acnes” value [1, 3] is reported as 2.0% and 0% and the “Optical density, C. acnes” value ([1]; 0.5% (m/v), plate col. 5) is reported as 0.242 and 0.245. For the same compound, the “Percentage of inhibition, C. acnes” value ([1]; 0.5% (m/v), plate col. 5) was 0%, the “Optical density, C. acnes” value [1, 4] was 0.244 and 0.245 and the “Percentage of inhibition, C. acnes” value [1, 4] was 0%. The “Optical density, C. acnes” value ([1]; 1% (m/v), plate col. 4) was 0.241, the “Percentage of inhibition, C. acnes” value ([1]; 1% (m/v), plate col. 4) was 0% and the “Optical density, C. acnes” value [1, 5] was 0.243 and 0.242. The “Percentage of inhibition, C. acnes” value [1, 5] was 0%, the “antibacterial effect against P. acnes (in words)” value ([1]; 2%) was “no antibacterial effect” and the “Optical density, C. acnes” value ([1]; 2% (m/v), plate col. 3) was 0.236 and 0.234. The “Percentage of inhibition, C. acnes” value ([1]; 2% (m/v), plate col. 3) was 3.0% and 4.1%, the “Optical density, C. acnes” value [1, 6] was 0.244 and the “Percentage of inhibition, C. acnes” value [1, 6] was 0%. For the same compound, the “Optical density, C. acnes” value [1, 7] was 0.242 and 0.245, the “Percentage of inhibition, C. acnes” value [1, 7] was 0% and the “Optical density, C. acnes” value [1, 8] was 0.245 and 0.244. For the same compound, the “Percentage of inhibition, C. acnes” value [1, 8] was 0%, the “Optical density, C. acnes” value [1, 9] was 0.245 and 0.243 and the “Percentage of inhibition, C. acnes” value [1, 9] was 0%. The “Optical density, H. influenza” value [2, 3] was 0.190 and 0.197, the “Percentage of inhibition, H. influenza” value [2, 3] was 1.9% and 0% and the “Optical density, H. influenza” value ([2]; 0.5% (m/v), plate col. 5) was 0.193 and 0.191. For the same compound, the “Percentage of inhibition, H. influenza” value ([2]; 0.5% (m/v), plate col. 5) was −0.3% and 1.2%, the “Optical density, H. influenza” value [2, 4] was 0.188 and 0.197 and the “Percentage of inhibition, H. influenza” value [2, 4] was 3.4% and 0%. The “Optical density, H. influenza” value ([2]; 1% (m/v), plate col. 4) was 0.190 and 0.183, the “Percentage of inhibition, H. influenza” value ([2]; 1% (m/v), plate col. 4) was 1.9% and 7.0% and the “Optical density, H. influenza” value [2, 5] was 0.185 and 0.196. For the same compound, the “Percentage of inhibition, H. influenza” value [2, 5] was 5.5% and 0%, the “antibacterial effect against H. influenza (in words)” value ([2]; 2%) was “no antibacterial effect” and the “Optical density, H. influenza” value ([2]; 2% (m/v), plate col. 3) was 0.184 and 0.181. The “Percentage of inhibition, H. influenza” value ([2]; 2% (m/v), plate col. 3) was 6.3% and 8.4%, the “Optical density, H. influenza” value [2, 6] was 0.180 and 0.193 and the “Percentage of inhibition, H. influenza” value [2, 6] was 9.1% and 0%. For the same compound, the “Optical density, H. influenza” value [2, 7] was 0.185 and 0.197, the “Percentage of inhibition, H. influenza” value [2, 7] was 5.5% and 0% and the “Optical density, H. influenza” value [2, 8] was 0.187 and 0.195. For the same compound, the “Percentage of inhibition, H. influenza” value [2, 8] was 4.1% and 0%, the “Optical density, H. influenza” value [2, 9] was 0.189 and 0.196 and the “Percentage of inhibition, H. influenza” value [2, 9] was 2.6% and 0%.

Source: US20250352458A1, “IMPROVEMENTS IN OR RELATING TO EXTRACTS” (Givaudan SA, priority 2020, published 2025)
